The text below walks through data of US10278971B2, “Fluorocyclopentenylcytosine methods of use” (Rexahn Pharmaceuticals, Inc., priority 2015, dated 2019).

Assay [1] relates to MC38 murine colon cancer. Put plainly: Syngeneic MC38 murine colon cancer model, tumor growth. It counts as in vivo. The method, then: Following the protocol described below, the effect of RX-3117 on tumor growth in a syngeneic model using female C57BL/6 mice with MC38 murine colon cancer was examined. Tumor growth was measured in a treatment group compared to a control (vehicle treated) group (see Table 1 below for dosing scheme and treatment regimen).
Briefly, the method is described as follows. The cells were harvested during exponential growth and re-suspended with phosphate buffered saline. Each test animal received a subcutaneous (s.c.) injection of 1×10^6 tumor cells into the right flank and tumor growth was monitored as the average tumor size approaches the target range of 60-100 mm^3. Dosing, based on Table 1 started as each animal reached this target range.
Tumors were measured in two dimensions using calipers, and volume calculated using the formula:
[…] The MTV (n), the median tumor volume for the number of animals, n, on Day 45, was determined for each group. Percent tumor growth inhibition (% TGI) is defined as the difference between the MTV of the designated control group (vehicle administration) and the MTV of the drug-treated group, expressed as a percentage of the MTV of the control group:
The data set for TGI analysis includes all animals in a group, except those that died due to treatment-related (TR) or non-treatment-related (NTR) causes. An agent that produces at least 60% TGI in this assay is considered to be potentially therapeutically active.
Treatment efficacy was determined from the number of regression responses. Treatment may cause partial regression (PR) or complete regression (CR) of the tumor in an animal. In a PR response, the tumor volume is 50% or less of its D1 volume for three consecutive measurements during the course of the study, and equal to or greater than 13.5 mm^3 for one or more of these three measurements. In a CR response, the tumor volume is less than 13.5 mm^3 for three consecutive measurements during the course of the study. Any animal with a CR response on the last day of the study was additionally classified as a tumor-free-survivor.
For toxicity assessments, animals were weighed daily for the first five days of the study and twice weekly thereafter. The mice were observed frequently for overt signs of any adverse, treatment-related side effects, and clinical signs of toxicity are recorded when observed.
Acceptable toxicity is defined as a group mean body-weight loss of less than 20% during the study and not more than one treatment-related (TR) death among ten treated animals. Any dosing regimen resulting in greater toxicity is considered above the maximum tolerated dose (MTD). […]

The test system of assay [2] is A2780 ovarian cancer cells and NSCLC cell lines. Put plainly: Radiosensitizing effect, summary over cell lines. Type of assay: cell-based, human. Conditions: preincubation, pulse and fractionated irradiation. The method, then:
Exponential growing A2780, SW1573, A549, H460 and SW1573/G-cells were exposed to 1 μM RX-3117 or untreated (control) for 24 h and irradiated with single doses γ-radiation (0-6 Gy) using a ^60Co source (Gammacell 200, Atomic Energy of Canada, Ltd). Subsequently, 500 cells/T25 flasks were plated and allowed to form colonies. After ten days colonies were fixed with 100% ethanol and stained with 10% Giemsa stain solution (Merck Chemicals BV, Amsterdam, the Netherlands) for colonies counting. Plating efficiency (PE) was calculated by dividing the number of colonies formed through the number of cells plated and normalized for cytotoxicity induced by control. To illustrate the effect of RX-3117 on radiation, dose modifying factor (DMF) was calculated as described earlier (Bijnsdorp I V, van den Berg J, Kuipers G K, Wedekind L E, Slotman B J, van Rijn J, Lafleur M V M and Sminia P: Radiosensitizing potential of the selective cyclooygenase-2 (COX-2) inhibitor meloxicam on human glioma cells. J Neurooncol 85: 25-31, 2007).

For assay [3], the system named is A549. Put plainly: Mice xenograft model, tumor growth inhibition. Type of assay: in vivo. Conditions: oral 500 mg/kg, TIWK. An excerpt: (§1) A novel, orally bioavailable nucleoside analogue, RX-3117, is a prodrug activated intracellularly by Uridine Cytidine Kinase 2 (UCK2) that is thought to be expressed predominantly in tumor tissue. RX-3117 is currently being evaluated in a Phase Ib/IIa multi-center, open-label clinical study in patients with advanced pancreatic and bladder cancer. In this study, the relation between UCK2 tissue protein expression and the efficacy of RX-3117 in mice xenograft models and also UCK2 protein expression in a panel of human cancer tissues relative to normal tissue were studied.
(§2) The immunoblotting protein level of UCK2 normalized to beta-actin and corresponding tumor growth inhibition (oral RX-3117 dose of 500 mg/kg, TIWK) were 57 and 67% in MiaPaCa2, 30 and −5% in BxPC3, 199 and 92% in Colo-205, 21 and 90% in Caki-1, 2 and 39% in A549, and 146 and 79% in H460, respectively. […] Average H-Scores of UCK2 in cancer tissues vs. normal tissues were 104 vs. 9 in lung, 97 vs. 20 in bladder, 67 vs. 41 in pancreas and 39 vs. 21 in colon, respectively.

In assay [4] the test system is Caki-1. Put plainly: Mice xenograft model, tumor growth inhibition. Conditions: Caki-1 xenograft, oral 500 mg/kg, TIWK. It counts as in vivo.
Text: as §1, §2

Assay [5] has as its system H460. Put plainly: Mice xenograft model, tumor growth inhibition. Type of assay: in vivo. Conditions: oral 500 mg/kg, TIWK.
Text: as §1, §2

In assay [6] the test system is Colo-205. Put plainly: Mice xenograft model, tumor growth inhibition. Type of assay: in vivo. Conditions: Colo-205 xenograft, oral 500 mg/kg, TIWK.
Text: as §1, §2

The test system of assay [7] is BxPC3. Nature of the assay: Mice xenograft model, tumor growth inhibition. Type of assay: in vivo. Conditions: oral 500 mg/kg, TIWK.
Text: as §1, §2

Assay [8] deals with MiaPaCa2. Nature of the assay: Mice xenograft model, tumor growth inhibition. Conditions: oral 500 mg/kg, TIWK. It counts as in vivo.
Text: as §1, §2

[9] abbreviates: Day 45, N=10 per group, same regimens.

On to `Nc1ccn([C@@H]2C(F)=C(CO)[C@@H](O)[C@H]2O)c(=O)n1` [RX-3117, 4-amino-1-((1S,4R,5S)-2-fluoro-4,5-dihydroxy-3-hydroxymethyl-cyclopent-2-enyl)-1H-pyrimidin-2-one], for which, in assay [1] (setting [9]), the “CR: No. of Complete Regressions” value worked out at 0. Moreover, in assay [1] (setting [9]), the “PR: No. of Partial Regressions” value turned out to be 0. The “TFS: No. of Tumor Free Survivors” value in assay [1] (setting [9]) worked out at 0. Besides, the “TGI Day 28 (tumor growth inhibition)” value in assay [1] (female C57BL/6 mice, MC38 s.c., RX-3117 60 mg/kg po (5/2) x 3, anti-PD-1 RMP1-14 100 μg/animal ip biwk x 2, 60 mg/kg) is on record as 80%. The dose modifying factors in assay [2] is recorded as 1.4-1.8. Moreover, the tumor growth inhibition in assay [3] is recorded as 39%; in assay [4] it was 90%; in assay [5] it was 79%; in assay [6], 92%; in assay [7] it was −5%; in assay [8], 67%.
